This note sets out measurements from patent US20210395256A1, “TYROSINE KINASE INHIBITORS, COMPOSITIONS AND METHODS THERE OF” (Betta Pharmaceuticals Co., Ltd., priority 2018, published 2021).

SMILES strings stand for the structures. Where two headings read alike, the source gives them in different places. Bounds are passed on as bounds.

As a reminder, the IC50 is the point on the concentration scale where inhibition reaches its midpoint. By microsomal CLint is commonly meant a measure of how fast metabolising enzymes remove a compound, apart from limits set by blood flow. High values mean faster metabolism, low ones greater metabolic stability.

One data set addresses TrkA kinase (Homo sapiens, UniProt P04629). Description: TrkA kinase assay (mobility shift assay). In kind it is biochemical. As to conditions: read-out: Trk A Kinase IC50. The method, boiled down: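 Ten-point compound series was preincubated 10 min at room temperature with TrkA, then FAM-peptide plus ATP added in HEPES pH 7.5/Brij-35 buffer and reacted at 28 °C before EDTA quench.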

A short description of data set [1]: Liver microsomes metabolic stability assay, mouse. In kind it is in vitro ADME. As to conditions: male, mouse liver microsomes 0.5 mg/mL, 37° C. The method, then: (§1) Example 203 Liver Microsomes Metabolic Stability Assay
(§2) Pooled human liver microsomes (Cat. 452117) were purchased from Corning. Pooled male rat liver microsomes (Cat. R1000) and pooled male mouse liver microsomes (Cat. M1000) were purchased from XENOTECH. Microsomes were stored at −80° C.
(§3) 1) Make a master solution containing phosphate buffer, ultra-pure H2O and MgCl2 solution according to Table 14.
(§4) 2) Two separated experiments were performed as follows.
(§5) a) With NADPH: 10 μL of 20 mg/mL liver microsomes and 40 μL of 10 mM NADPH were added to the incubations. The final concentrations of microsomes and NADPH were 0.5 mg/mL and 1 mM, respectively.
(§6) b) Without NADPH: 10 μL of 20 mg/mL liver microsomes and 40 μL of ultra-pure H2O were added to the incubations. The final concentration of microsomes was 0.5 mg/mL.
(§7) 3) The reaction was started with the addition of 4 μL test compounds solutions or control compound solution (verapamil) at the final concentration of 2 μM and carried out at 37° C.
(§8) 4) Aliquots of 50 μL were taken from the reaction solution at 0, 15, 30, 45 and 60 min. The reaction solutions were stopped by the addition of 4 volumes of cold acetonitrile with 1S (100 nM alprazolam, 200 nM caffeine, 200 nM labetalol and 2 μM ketoprofen). Samples were centrifuged at 3,220 g for 40 minutes. Aliquot of 100 μL of the supernatant was mixed with 100 μL of ultra-pure H2O and then used for LC-MS/MS analysis. All experiments were performed in duplicate.
(§9) The slope value, k, was determined by linear regression of the natural logarithm of the remaining percentage of the parent drug vs. incubation time curve.
(§10) The in vitro half-life (in vitro t1/2) was determined from the slope value:
(§11) Conversion of the in vitro t1/2 (in min) into the in vitro intrinsic clearance (in vitro CLint, in μL/min/mg proteins) was done using the following equation (mean of duplicate determinations): […]
(§12) The control compound (verapamil) was included in the assay. Any value of the compounds that was not within the specified limits will be rejected and the experiment will be repeated.
On the technique in general: Liver microsomes are vesicles of endoplasmic reticulum, rich in cytochrome P450 enzymes.

The nature of data set [2]: Liver microsomes metabolic stability assay, rat. In kind it is in vitro ADME. As to conditions: male, rat liver microsomes 0.5 mg/mL, 37° C. The procedure: as §1, §2, §3, §4, §5, §6, §7, §8, §9, §10, §11, §12
The nature of data set [3]: Liver microsomes metabolic stability assay, human. It counts as in vitro ADME. As to conditions: human liver microsomes 0.5 mg/mL, 37° C. The procedure: as §1, §2, §3, §4, §5, §6, §7, §8, §9, §10, §11, §12

Sequence of TrkA kinase (P04629 33-796): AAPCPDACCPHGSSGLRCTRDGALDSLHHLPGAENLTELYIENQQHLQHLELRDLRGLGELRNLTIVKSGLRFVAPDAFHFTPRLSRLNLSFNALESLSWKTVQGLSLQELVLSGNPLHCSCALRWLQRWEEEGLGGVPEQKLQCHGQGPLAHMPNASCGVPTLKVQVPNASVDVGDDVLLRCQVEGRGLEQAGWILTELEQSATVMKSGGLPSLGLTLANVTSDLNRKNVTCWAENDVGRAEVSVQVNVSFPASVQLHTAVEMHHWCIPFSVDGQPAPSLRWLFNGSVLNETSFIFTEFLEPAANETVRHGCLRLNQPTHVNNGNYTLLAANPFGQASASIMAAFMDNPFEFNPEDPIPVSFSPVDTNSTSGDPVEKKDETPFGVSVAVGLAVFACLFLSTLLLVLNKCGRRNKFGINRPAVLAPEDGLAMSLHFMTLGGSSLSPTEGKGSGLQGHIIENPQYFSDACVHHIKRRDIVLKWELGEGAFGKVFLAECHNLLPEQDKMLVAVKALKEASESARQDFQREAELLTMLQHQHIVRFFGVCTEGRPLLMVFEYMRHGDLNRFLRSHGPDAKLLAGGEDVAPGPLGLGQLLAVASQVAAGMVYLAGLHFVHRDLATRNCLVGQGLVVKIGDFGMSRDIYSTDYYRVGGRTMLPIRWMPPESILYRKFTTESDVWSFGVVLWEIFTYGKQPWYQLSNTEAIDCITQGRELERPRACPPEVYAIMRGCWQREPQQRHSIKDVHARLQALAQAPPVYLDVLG

`C[C@@](O)(c1nnc(-c2cnn3ccc(N4CCC[C@@H]4c4cc(F)ccc4F)nc23)[nH]1)C(F)(F)F` [Compound 26, (R)-2-(5-(5-((R)-2-(2,5-difluorophenyl)pyrrolidin-1-yl)pyrazolo[1,5-a]pyrimidin-3-yl)-4H-1,2,4-triazol-3-yl)-1,1,1-trifluoropropan-2-ol]: the IC50 at TrkA kinase (numeric values) is 2.6 nM. The microsomal CLint at 2 μM in data set [1] was determined as 25.9 µL/min/mg; in data set [2], 40.5 µL/min/mg; in data set [3] it was 23 µL/min/mg. In addition, the half-life at 2 μM in data set [1] (read-out: t1/2 Mouse) is 53.5 min; in data set [2] (read-out: t1/2 Rat), 34.2 min; in data set [3] (read-out: t1/2 Human), 60.2 min.

As to `Cc1cc2nc(-c3cnn4ccc(N5CCC[C@@H]5c5cc(F)ccc5F)nc34)oc2cc1OC(F)F` [Compound 179, (R)-6-(difluoromethoxy)-2-(5-(2-(2,5-difluorophenyl)pyrrolidin-1-yl)pyrazolo[1,5-a]pyrimidin-3-yl)-5-methylbenzo[d]oxazole], the IC50 at TrkA kinase (class symbols) lay within 10 to 50 nM.

As to `COc1cc2oc(-c3cnn4ccc(N5CCC[C@@H]5c5cc(F)ccc5F)nc34)nc2cc1CN1CCC[C@H]1C(=O)O` [Compound 180, ((2-(5-((R)-2-(2,5-difluorophenyl)pyrrolidin-1-yl)pyrazolo[1,5-a]pyrimidin-3-yl)-6-methoxybenzo[d]oxazol-5-yl)methyl)-L-proline], the IC50 on TrkA kinase (class symbols) was more than 50 nM.

`COc1cnc(OC)n2nc(-c3cnn4ccc(N5CCC[C@@H]5c5cc(F)ccc5F)nc34)nc12` [Compound 181, (R)-2-(5-(2-(2,5-difluorophenyl)pyrrolidin-1-yl)pyrazolo[1,5-a]pyrimidin-3-yl)-5,8-dimethoxy-[1,2,4]triazolo[1,5-c]pyrimidine]: the concentration for half-maximal inhibition (IC50) at TrkA kinase (class symbols) was 10 to 50 nM.

`COc1cc2nc(-c3cnn4ccc(N5CCC[C@@H]5c5cc(F)ccc5F)nc34)nn2cc1OC` [Compound 182, (R)-2-(5-(2-(2,5-difluorophenyl)pyrrolidin-1-yl)pyrazolo[1,5-a]pyrimidin-3-yl)-6,7-dimethoxy-[1,2,4]triazolo[1,5-a]pyridine]: at TrkA kinase (class symbols), the IC50 is 10 to 50 nM.

For the compound `Fc1ccc(F)c([C@H]2CCCN2c2ccn3ncc(-c4cc5ccc(F)cc5[nH]4)c3n2)c1` [Compound 183, (R)-5-(2-(2,5-difluorophenyl)pyrrolidin-1-yl)-3-(6-fluoro-1H-indol-2-yl)pyrazolo[1,5-a]pyrimidine], the IC50 at TrkA kinase (numeric values) is 20.4 nM.

With `COC(=O)c1ccc2[nH]c(-c3cnn4ccc(N5CCC[C@@H]5c5cc(F)ccc5F)nc34)cc2c1` [Compound 184, methyl (R)-2-(5-(2-(2,5-difluorophenyl)pyrrolidin-1-yl)pyrazolo[1,5-a]pyrimidin-3-yl)-1H-indole-5-carboxylate], the IC50 on TrkA kinase (class symbols) was not above 10 nM.

As to `O=C(O)c1ccc2[nH]c(-c3cnn4ccc(N5CCC[C@@H]5c5cc(F)ccc5F)nc34)cc2c1` [Compound 185, (R)-2-(5-(2-(2,5-difluorophenyl)pyrrolidin-1-yl)pyrazolo[1,5-a]pyrimidin-3-yl)-1H-indole-5-carboxylic acid], the IC50 on TrkA kinase (class symbols) is not above 10 nM.

Take `Oc1ccc2cc(-c3cnn4ccc(N5CCC[C@@H]5c5cc(F)ccc5F)nc34)[nH]c2c1` [Compound 186, (R)-2-(5-(2-(2,5-difluorophenyl)pyrrolidin-1-yl)pyrazolo[1,5-a]pyrimidin-3-yl)-1H-indol-6-ol]: the IC50 on TrkA kinase (class symbols) lay in the range of 10 to 50 nM.

Take `O[C@H]1CCn2nc(-c3cnn4ccc(N5CCC[C@@H]5c5cc(F)ccc5F)nc34)nc2C1` [Compound 187, (S)-2-(5-((R)-2-(2,5-difluorophenyl)pyrrolidin-1-yl)pyrazolo[1,5-a]pyrimidin-3-yl)-5,6,7,8-tetrahydro-[1,2,4]triazolo[1,5-a]pyridin-7-ol]: the IC50 at TrkA kinase (numeric values) was found to be 6.6 nM.

Turning to `Fc1ccc(F)c([C@H]2CCCN2c2ccn3ncc(-c4nc5c([nH]4)COCC5)c3n2)c1` [Compound 188, (R)-2-(5-(2-(2,5-difluorophenyl)pyrrolidin-1-yl)pyrazolo[1,5-a]pyrimidin-3-yl)-3,4,6,7-tetrahydropyrano[3,4-d]imidazole], at TrkA kinase (class symbols), the IC50 was not above 10 nM.

Regarding `Fc1ccc(F)c([C@H]2CCCN2c2ccn3ncc(-c4nc5c(s4)CCNC5)c3n2)c1` [Compound 189, (R)-2-(5-(2-(2,5-difluorophenyl)pyrrolidin-1-yl)pyrazolo[1,5-a]pyrimidin-3-yl)-4,5,6,7-tetrahydrothiazolo[4,5-c]pyridine], the IC50 at TrkA kinase (class symbols) is not above 10 nM.

`Fc1ccc(F)c([C@H]2CCCN2c2ccn3ncc(-c4nc5c(s4)CNCC5)c3n2)c1` [Compound 190, (R)-2-(5-(2-(2,5-difluorophenyl)pyrrolidin-1-yl)pyrazolo[1,5-a]pyrimidin-3-yl)-4,5,6,7-tetrahydrothiazolo[5,4-c]pyridine]: the IC50 at TrkA kinase (class symbols) was not above 10 nM.

Regarding `NC(=O)N1CCc2nc(-c3cnn4ccc(N5CCC[C@@H]5c5cc(F)ccc5F)nc34)sc2C1` [Compound 191, (R)-2-(5-(2-(2,5-difluorophenyl)pyrrolidin-1-yl)pyrazolo[1,5-a]pyrimidin-3-yl)-6,7-dihydrothiazolo[5,4-c]pyridine-5(4H)-carboxamide], the IC50 at TrkA kinase (class symbols) fell in the range of 10 to 50 nM.

Turning to `Fc1ccc(F)c([C@H]2CCCN2c2ccn3ncc(-c4nc5c(s4)COCC5)c3n2)c1` [Compound 192, (R)-2-(5-(2-(2,5-difluorophenyl)pyrrolidin-1-yl)pyrazolo[1,5-a]pyrimidin-3-yl)-6,7-dihydro-4H-pyrano[4,3-d]thiazole], on TrkA kinase (class symbols), the IC50 was 10 to 50 nM.

On to `COc1cc2nc(-c3c(N)nn4ccc(N5CCC[C@@H]5c5cc(F)ccc5F)nc34)[nH]c2cc1OC` [Compound 193, (R)-5-(2-(2,5-difluorophenyl)pyrrolidin-1-yl)-3-(5,6-dimethoxy-1H-benzo[d]imidazol-2-yl)pyrazolo[1,5-a]pyrimidin-2-amine], for which the IC50 on TrkA kinase (class symbols) was not above 10 nM.

Consider `COc1cc2nc(-c3c(N)nn4ccc(N5CCC[C@@H]5c5cc(F)ccc5F)nc34)[nH]c2cc1C#N` [Compound 194, (R)-2-(2-amino-5-(2-(2,5-difluorophenyl)pyrrolidin-1-yl)pyrazolo[1,5-a]pyrimidin-3-yl)-5-methoxy-1H-benzo[d]imidazole-6-carbonitrile], for which, on TrkA kinase (class symbols), the IC50 was not above 10 nM.

`COc1cc2[nH]c(-c3cnn4ccc(N5CCC[C@@H]5c5ccccc5F)nc34)nc2cc1C#N` [Compound 195, (R)-2-(5-(2-(2-fluorophenyl)pyrrolidin-1-yl)pyrazolo[1,5-a]pyrimidin-3-yl)-6-methoxy-1H-benzo[d]imidazole-5-carbonitrile]: the IC50 on TrkA kinase (numeric values) is 2.3 nM.

`COc1cc2[nH]c(-c3cnn4ccc(N5CCC[C@@H]5c5cccc(F)c5)nc34)nc2cc1C#N` [Compound 196, (R)-2-(5-(2-(3-fluorophenyl)pyrrolidin-1-yl)pyrazolo[1,5-a]pyrimidin-3-yl)-6-methoxy-1H-benzo[d]imidazole-5-carbonitrile]: the concentration for half-maximal inhibition (IC50) at TrkA kinase (numeric values) stood at 2.6 nM.

For the compound `COc1cc2[nH]c(-c3cnn4ccc(N5CCC[C@H]5c5cc(F)ccc5F)nc34)nc2cc1C#N` [Compound 197, (S)-2-(5-(2-(2,5-difluorophenyl)pyrrolidin-1-yl)pyrazolo[1,5-a]pyrimidin-3-yl)-6-methoxy-1H-benzo[d]imidazole-5-carbonitrile], the IC50 on TrkA kinase (class symbols) lay in the range of 10 to 50 nM.

Consider `COc1cc2[nH]c(-c3cnn4ccc(N5CCC[C@@H]5c5ccc(F)cc5)nc34)nc2cc1C#N` [Compound 198, (R)-2-(5-(2-(4-fluorophenyl)pyrrolidin-1-yl)pyrazolo[1,5-a]pyrimidin-3-yl)-6-methoxy-1H-benzo[d]imidazole-5-carbonitrile], for which the IC50 at TrkA kinase (class symbols) is more than 50 nM.

As to `COc1cc2nc(-c3cnn4ccc(N5CCC[C@@H]5c5cc(F)ccc5F)nc34)cn2cc1OC` [Compound 199, (R)-5-(2-(2,5-difluorophenyl)pyrrolidin-1-yl)-3-(6,7-dimethoxyimidazo[1,2-a]pyridin-2-yl)pyrazolo[1,5-a]pyrimidine], on TrkA kinase (class symbols), the IC50 lay within 10 to 50 nM.

Take `Fc1ccc(F)c([C@H]2CCCN2c2ccn3ncc(-c4nnc5n4CCOC5)c3n2)c1` [Compound 200, (R)-3-(5-(2-(2,5-difluorophenyl)pyrrolidin-1-yl)pyrazolo[1,5-a]pyrimidin-3-yl)-5,6-dihydro-8H-[1,2,4]triazolo[3,4-c][1,4]oxazine]: the IC50 at TrkA kinase (class symbols) lay within 10 to 50 nM.
